The source of these data is PubChem BioAssay (NCI).

Test systems include OVCAR-4 ovarian; UACC-62 melanoma; U251 CNS; NCI-H522 lung; SF-295 CNS; CAKI-1 renal; COLO 205 colon; HCC-2998 colon; T-47D breast; MDA-MB-435.
Common to all, as to assay: inhibition of tumour cell growth, NCI panel, 48 h

Molecules are shown by their SMILES.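 Method: 48-hour compound exposure of cells in 96-well plates, five concentrations, linear interpolation of endpoints. The concentration for 50% growth inhibition is given as GI50. Definition used: TGI = concentration required for complete inhibition of growth.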

In the case of `COc1cc(-c2cn(-c3ccc(Cl)c(Cl)c3)c(=O)n2C(C)=O)cc(OC)c1OC`, the GI50 in the test with OVCAR-4 ovarian was 5.21 µM; in the test on UACC-62 melanoma it was 13.3 µM; in the test on U251 CNS it was 8.86 µM; in the test on NCI-H522 lung it was 13.3 µM; with SF-295 CNS it was 1.53 µM; with CAKI-1 renal, 11.5 µM. In addition, the GI50 in the test with COLO 205 colon is 7.9 µM; in the test on HCC-2998 colon, 14.9 µM; with T-47D breast, 18.4 µM; in the test on MDA-MB-435 it was 14.2 µM. The TGI in the test on OVCAR-4 ovarian is more than 100 µM; in the test on UACC-62 melanoma, 26 µM; with U251 CNS, 21.3 µM; in the test on NCI-H522 lung, 30 µM; with SF-295 CNS, 5.79 µM; with CAKI-1 renal it was 33.5 µM. In addition, the TGI with COLO 205 colon came to 21.7 µM; in the test on HCC-2998 colon, 29.8 µM; in the test on T-47D breast it was 48.1 µM; in the test on MDA-MB-435, 35 µM.
